Patent publication US20070167400A1, “Chitosan oligosaccharides and uses thereof” (priority 2001, published 2007)

Assays:
[1] = system: prostaglandin E2 (PGE2) release by human keratinocytes; test: PGE2 release by human keratinocytes (ELISA), unstimulated, UVB or PMA stimulated; format: cell-based
Description: The objectives of the present study are to evaluate the anti-inflammatory effects of two chitosan oligosaccharides (product […] and product […]) according to the present invention, and, more particularly on prostaglandin E2 (PGE2) and IL-1β release by human keratinocytes under a UVB irradiation. […] Other plates were kept in the dark. […] After thawing and centrifugation of the medium, the content in PGE2 was measured in ELISA with a R&D Systems kit (DE0100), according to the recommended protocol of the supplier. The IL1β content was measured in ELISA with a Immunotech kit (1042), according to the recommended protocol of the supplier. The raw data were transformed and treated by the software PRISM® (Graph Pad Software). The intergroup comparisons were realized by analysis of variance (ANOVA), with the multiple comparison test […].

[2] = system: IL-6 production in mice macrophages C57BL/6; test: IL-6 production in macrophages (ELISA); format: cell-based, C57BL/6 mice; conditions: non-activated macrophages
Description: FIG. 3 is a graphic illustrating the levels of IL-6 production in mice macrophages C57BL/6 treated in vitro with various concentrations of chitosan oligomers and glucosamine (A) with and without the presence of peptidoglycan (B), as measured by an ELISA test (n=3). […] LPS and PEP were added as positive controls. Non-activated macrophages were treated with products A, B and W and the IL-6 production was compared with the effects of glucosamine (product D). LPS and PEP were added as positive controls.

[3] = system: C57BL/6 mice spleen lymphocytes; test: Stimulation of spleen lymphocytes by supernatants of treated peritoneal macrophages (MTS/PMS); format: cell-based
Description: FIG. 1 is a graphic illustrating the levels of stimulation of the C57BL/6 mice spleen lymphocytes incubated in vitro with macrophage supernatants treated with various concentrations of chitosan oligomers and glucosamine in (A) with and without the presence of peptidoglycan (B), as measured by the activity of the mitochondrial dehydrogenase on formazan salts (MTS/PMS) after 72 hrs of incubation (n=3).
The first experiment consisted in verifying if Product W was able to induce an […] effect. With this in mind, various concentrations of Product W (10 to 160 μg/ml) were incubated with peritoneal macrophages during a 24 hour period and the immunostimulating properties of the supernatants were measured on C57BL/6 mice spleen lymphocytes. The metabolic activity of spleen lymphocytes was measured by the level of Formazan salts transformation (mitochondrial dehydrogenase: MTS/PMS). As control, the dimer of glucosamine (product A), the trimer of glucosamine (product B) and a mixture of dimer-trimer in a ratio of 40:60 (mixture AB) was also studied and the results compared with those induced by glucosamine (product D). Positive controls of pro-inflammatory substances were added, such as lipopolysaccharides of E. coli (LPS) and peptidoglycan of S. Aureus (PEP).
In a second experiment, the macrophages were stimulated by peptidoglycan, (that has a stronger activation on the inflammatory response than LPS), and the capacity of products A, B, AB and W to decrease the stimulation of the lymphocytes was evaluated. […] The reduction induced by Product W, though slight, seems stronger than that induced by glucosamine (product D).

[4] = system: IL-1β release by human keratinocytes; test: IL-1β release by human keratinocytes (ELISA), unstimulated, UVB or PMA stimulated; format: cell-based; conditions: dexamethasone 0.1 μM
Description: • Reference 1: (PGE2 induction): Indomethacin (Sigma 17378), tested at 1 μM (final) • Reference 2: (IL1β induction): Dexamethazone (Sigma D1756), tested at 0.1 μM (final) Treatments and Assays
Other plates were kept in the dark.
After thawing and centrifugation of the medium, the content in PGE2 was measured in ELISA with a R&D Systems kit (DE0100), according to the recommended protocol of the supplier. The IL1β content was measured in ELISA with a Immunotech kit (1042), according to the recommended protocol of the supplier.
The raw data were transformed and treated by the software PRISM® (Graph Pad Software). The intergroup comparisons were realized by analysis of variance (ANOVA), with the multiple comparison test DUNNETT.

[5] = system: TNF-α production in C57BL/6 mice macrophages; test: TNF-α production in macrophages (ELISA); format: cell-based; conditions: macrophages activated by PEP
Description: LPS and PEP were added as positive controls. The first cytokine studied was tumor necrosis factor (TNF-α) which is the first cytokine produced and induces the production of the other pro-inflammatory cytokines.

[6] = system: IL-10 production in mice macrophages C57BL/6; test: IL-10 production in macrophages (ELISA); format: cell-based, C57BL/6 mice
Description: LPS and PEP were added as positive controls. We then verified the IL-10 production levels, a very powerful anti-inflammatory cytokine. Peritoneal macrophages are normally good producers of IL-10 since a normal intestinal system requires a high immunological tolerance to operate correctly. Non-activated macrophages were incubated with the various products, as well as LPS and PEP as positive controls, during 24 hours.

[7] = no stimulation, indomethacin 1 μM
[8] = supernatants of non-activated macrophages, 10 to 160 μg/ml, 24 hour

With `COc1ccc2c(c1)c(CC(=O)O)c(C)n2C(=O)c1ccc(Cl)cc1` [Indomethacin] the “effect on PGE2 release induced by PMA (in words)” value ([1]; PMA stimulation) was “totally blocked the PGE2 production/release”, the “PGE2” value ([1]; PMA stimulation 1 μg/ml, indomethacin 1 μM) was 10 pg/mL and the “PGE2 % (of control)” value ([1]; PMA stimulation, indomethacin 1 μM) was 0%. The “effect on PGE2 release (in words)” value ([1]; UVB stimulation) was “significantly reduced the PGE2 release”, the “PGE2” value ([1]; UVB stimulation 250 mJ/cm2, indomethacin 1 μM) was 7.3 pg/mL and the “PGE2 % (of control)” value ([1]; UVB stimulation, indomethacin 1 μM) was 22%. For the same molecule, the “PGE2” value [1, 7] was 0.9 pg/mL, the “PGE2 % (of control)” value [1, 7] was 8% and the “effect on basal PGE2 production/release (in words)” value [1, 7] was “apparently totally blocked the production/release of this basal level”.
In the case of `N[C@H]1[C@H](O[C@H]2[C@H](O)[C@@H](N)C(O)O[C@@H]2CO)O[C@H](CO)[C@@H](O)[C@@H]1O` (stereo partly drawn) [Product A], the “effect on IL-6 production (in words), FIG. 3A” value (from here on “effect on IL-6 production”) [2] is reported as “slightly decrease”, the “effect on lymphocyte activity (in words), FIG. 1A” value (from here on “effect on lymphocyte activity”) ([3]; non-activated macrophages, 80 μg/ml) is reported as “slight increase” and the “effect on lymphocyte activity” value ([3]; non-activated macrophages, 10 μ/ml) is reported as “slight decrease”.
In the case of `N[C@H]1[C@H](O[C@H]2[C@H](O)[C@@H](N)[C@H](O[C@H]3[C@H](O)[C@@H](N)C(O)O[C@@H]3CO)O[C@@H]2CO)O[C@H](CO)[C@@H](O)[C@@H]1O` (stereo partly drawn) [Product B], the “effect on IL-6 production” value [2] is reported as “increase”, the “effect on lymphocyte stimulation induced by PEP (in words), FIG. 1B” value ([3]; macrophages stimulated by peptidoglycan (PEP)) is reported as “with the weakest concentration tested was able to decrease this stimulation” and the “effect on lymphocyte activity” value [3, 8] is reported as “slight stimulation with the smallest doses only”.
In the case of `C[C@@H]1C[C@H]2[C@@H]3CCC4=CC(=O)C=C[C@]4(C)[C@@]3(F)[C@@H](O)C[C@]2(C)[C@@]1(O)C(=O)CO` [dexamethasone, Dexamethazone], the “IL1β” value ([4]; PMA stimulation 1 μg/ml) is reported as 0.2 pg/mL, the “IL1β % (of control)” value ([4]; PMA stimulation) is reported as 5% and the “IL-1β % (of control)” value ([4]; no stimulation) is reported as 8%.
In the case of `N[C@H]1C(O)O[C@H](CO)[C@@H](O)[C@@H]1O` (stereo partly drawn) [glucosamine], the “effect on TNF-α (in words), FIG. 2B” value ([5]; 10 μg/ml) is reported as “increased the level of TNF-α”, the “effect on TNF-α (in words), FIG. 2B” value ([5]; highest concentration) is reported as “induced a reduction” and the “effect on IL-6 production” value [2] is reported as “did not modify this cytokine”. The “effect on lymphocyte activity” value [3, 8] was “slightly increased the lymphocyte activity”, the “effect on IL-10 production (in words), FIG. 4B” value ([6]; macrophages activated by PEP) was “no detectable effect” and the “effect on IL-10 production (in words), FIG. 4A” value ([6]; non-activated macrophages, 24 hours) was “slightly increased the IL-10 production”.
